Assay results from patent US20230416247A1, “DRUG-LIKE MOLECULES AND METHODS FOR THE THERAPEUTIC TARGETING OF MICRORNA-21” (University of Washington, priority 2020, published 2023).

How the values were obtained:
Format in all cases: cell-based, human
[1] = test system: mature miR-21 and pre-miR-21 in ASPC1 cells; assay: qRT-PCR of mature miR-21 and pre-miR-21 in ASPC1 cells; details: ASPC1, 10 nmoles, 48 hours, relative to DMSO control
Experimental: FIGS. 13A-13D compare levels of mature miR-21 and pre-mi-21 measured in gastric adenocarcinoma (AGS) (FIGS. 13A and 13B, respectively) and pancreatic cancer cell line (ASPC 1) (FIGS. 13C and 13D, respectively), normalized to internal controls (U6 or U8 snRNA), in the presence of 10 nmoles of palbociclib (used here as a negative control, not expected to affect microRNA levels) and compounds −0045 and −0052, 48 hours after incubation, relative to DMSO control, and measured by standard qRT-PCR. Statistically significant changes are labeled with asterisks.
Levels of mature miR-21 and its precursor pre-miR-21 were measured in gastric carcinoma (ASG) and pancreatic (ASPC1) cancer cell lines under conditions where we observed a decrease in proliferation (FIGS. 13A-13D), using the same blind format described above.
(§1) Cell line maintenance. Using the Cancer Cell Line Encyclopedia (CCLE), in-house cancer cell lines were screened to identify cancer and tissue types with varying levels of miR-21 expression. Experiments were performed using the human-derived cell lines AGS (gastric cancer) and AsPC-1 (pancreatic cancer). Cell lines were obtained from the American Type Culture Collection and maintained per instructions from the supplier. AGS were cultured in F12K medium supplemented with 10% FBS. AsPC-1 were cultured in RPMI, with 10% FBS added. All cells were kept at 37° C. in a humidified atmosphere of 5% CO2 and underwent regular mycoplasma testing. All experiments were conducted when cells were 70-80% confluent.
Quantitative real time PCR analysis. RNA was isolated utilizing Trizol (Invitrogen) and the Direct-zol RNA Miniprep kit (Zymo Research). RNA concentration was assessed with the NanoDrop ND-1000 spectrophotometer (ThermoFisher Scientific). All microRNAs expression was tested in the two representative cell lines using qRT-PCR. Cells were seeded in 6-well plates 24 hours before treatment, at a cell confluency of 50-60%. Each cell line was treated with 10 μM compound or with only the dimethyl sulfoxide (DMSO) solvent. RNA was collected after the 48-hour time point. Expression of miR-21 was assessed utilizing the TaqMan microRNA assay (Applied Biosystems). The complementary DNA (cDNA) was synthesized using the TaqMan Reverse Transcription Reagents kit (Applied Biosystems) and was used with the TaqMan probes and Supermix (BioRad) for qRT-PCR analysis. U6 or U48 were used as internal controls for RNA levels. All experiments were performed in triplicate, with all samples normalized to the internal controls and relative expression levels calculated using the 2^ΔΔCt method.

[2] = test system: gastric (AGS) cancer cell line; assay: MTS proliferation assay, AGS; details: for viability (anti-proliferative activity), MTS: as a function of time, triplicate
Text: FIGS. 10A-10F compare anti-proliferative activity of 10 nmoles of compounds −0045 and −0052 against gastric (AGS) (FIGS. 10B and 10C, respectively) and pancreatic (ASPC1) (FIGS. 10E and 10F, respectively) cancer cell lines, as measured as a function of time and compared to palbociclib (−000) (FIGS. 10A-AGS; and 10D-ASPC1) using standard MTS assays in the indicated cell lines; results were in triplicate with reported experimental uncertainty.
FIGS. 11A-11F compare anti-proliferative activity of 5 nmoles of compounds −0045 and −0052 against gastric (AGS) (FIGS. 11B and 11C, respectively) and pancreatic (ASPC1) (FIGS. 11E and 11F, respectively) cancer cell lines, as measured as a function of time and compared to palbociclib (−000) (FIGS. 11A-AGS; and 11D-ASPC1), using standard MTS assays in the indicated cell lines; results were in triplicate with reported experimental uncertainty.
The anti-proliferative activity of compounds −0045 and −0052 in two cell lines characterized by high levels of miR-21 (gastric adenocarcinoma (AGS) and pancreatic (ASPC1) cancer origin) was determined. These experiments were conducted in a double-blind format, without knowledge of the identity or binding activity of the compounds, to avoid any unintentional bias. […] Viability in the presence of both palbociclib and compound −0052 is decreased after approximately 72-96 hrs to a statistically significant extent (data points marked with asterisks are statistically significant).
as §1
Proliferation assay. The impact of the compound on cellular proliferation was assessed, with 5,000 cells in each cell line seeded in replicates of 6 in a 96 well plate and treated with DMSO or with compounds. After 48 hours, cells were treated with the MTS reagent and optical density was read to generate dose-response curves.

[3] = test system: mature miR-10b in ASPC1 cells; assay: qRT-PCR of mature miR-10b in ASPC1 cells; details: ASPC1, 10 nmoles, 48 hours, relative to DMSO control
Experimental: FIGS. 14A-14D compare levels of mature miR-10b and pre-miR-10b measured in gastric adenocarcinoma (AGS) (FIGS. 14A and 14B, respectively) and pancreatic cancer cell line (ASPC 1) (FIGS. 14C and 14D, respectively), normalized to internal controls (U6 or U8 snRNA), in the presence of 10 nmoles of palbociclib (a negative control not expected to directly affect miRNA levels) and compounds −0045 and −0052, 48 hours after incubation, relative to DMSO control, and measured by standard qRT-PCR. We notice that levels of pre-miR-10b are very low in both cell lines, rendering the data very uncertain. Statistically significant changes are labeled with asterisks.
In order to investigate whether inhibition was specific to miR-21, levels of mature miR-10b and pre-miR-10b were examined in the same cell lines (FIGS. 14A-14D); this is another oncogenic microRNA implicated in metastasis. […]
Quantitative real time PCR analysis. […] RNA concentration was assessed with the NanoDrop ND-1000 spectrophotometer (ThermoFisher Scientific). […] Expression of miR-21 was assessed utilizing the TaqMan microRNA assay (Applied Biosystems). […] All experiments were performed in triplicate, with all samples normalized to the internal controls and relative expression levels calculated using the 2^ΔΔCt method.

Structure (SMILES) | decrease in mature miR-21 levels [1] [%] | pre-miR-21 levels [1] | viability (anti-proliferative activity), MTS ([2]; 5 nmoles of compound) | viability (anti-proliferative activity), MTS ([2]; 10 nmoles of compound) | change in levels of mature miR-10b [3] | cell killing activity, MTS over 6 days ([2]; both concentrations tested (10 and 5 nmols), double-blind) | reduction of levels of mature miR-10b [3]
O=c1[nH]c(Nc2ccc(N3CCNCC3)cn2)nc2cccnc12 [Compound 25] | 40 | reduction in pre-miR-21 levels | does not | does not | smaller and not statistically significant changes |  | 
O=c1[nH]c(Nc2ccc(N3CCNCC3)cn2)nc2cnccc12 [Compound 30] | 40 | reduction in pre-miR-21 levels | reduce the viability of both cell lines to a statistically significant extent | reduce the viability of both cell lines to a statistically significant extent |  | Cell killing activity | about 2 fold
